Experimental data reported in US20250179057A1, “MEK IMMUNE ONCOLOGY INHIBITORS AND THERAPEUTIC USES THEREOF” (Immuneering Corporation, priority 2022, published 2025).

What was measured:
[1] = tested on: phospho-MEK in A549 cells; test: Cell-based pMEK (pMEK:tMEK, CRAF bypass) in A549 cells; conditions: for A549-CRAF BP 100 nM, 2 h: pMEK to total MEK normalized to DMSO control
Method in brief: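 Cells (A549 or A375) exposed 2 h to compounds at varying concentrations in duplicate, then lysed; lysates set to 1.5 mg/mL for pMEK by quantitative Western (Jess). Phospho-MEK/total MEK ratio normalized to DMSO control.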

PAMPA (pH 7.4) = format: in vitro ADME
[2] = Mouse liver microsome stability (t1/2, Clint); conditions: 1 μM; 0.5 mg/ml microsomal protein
[3] = Human liver microsome stability (t1/2, Clint); conditions: 1 μM; 0.5 mg/ml microsomal protein
CYP1A2 = molecular target: T1, CYP1A2 (Homo sapiens, UniProt P05177); test: CYP450 panel inhibition in human liver microsomes, 1A2 (phenacetin); conditions: human liver microsomes, 10 μM, substrate phenacetin
T1 sequence (P05177 1-516): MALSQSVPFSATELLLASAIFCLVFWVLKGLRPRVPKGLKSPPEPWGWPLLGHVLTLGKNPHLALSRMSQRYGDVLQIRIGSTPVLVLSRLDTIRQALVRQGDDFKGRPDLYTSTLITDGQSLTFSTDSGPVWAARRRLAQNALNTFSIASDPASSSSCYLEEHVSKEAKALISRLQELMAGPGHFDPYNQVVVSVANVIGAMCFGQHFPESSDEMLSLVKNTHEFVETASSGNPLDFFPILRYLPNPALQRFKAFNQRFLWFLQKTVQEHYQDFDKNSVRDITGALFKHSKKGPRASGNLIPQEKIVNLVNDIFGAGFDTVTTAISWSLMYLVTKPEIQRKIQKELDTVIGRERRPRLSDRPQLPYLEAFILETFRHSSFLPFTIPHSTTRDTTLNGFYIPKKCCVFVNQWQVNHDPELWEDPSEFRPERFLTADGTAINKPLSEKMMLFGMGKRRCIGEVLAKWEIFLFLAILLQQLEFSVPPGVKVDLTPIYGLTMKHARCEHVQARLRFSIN

CYP2C8 = molecular target: T2, CYP2C8 (Homo sapiens, UniProt P10632); test: CYP450 panel inhibition in human liver microsomes, 2C8 (amodiaquine); conditions: 10 μM, substrate amodiaquine
T2 sequence (P10632 1-490): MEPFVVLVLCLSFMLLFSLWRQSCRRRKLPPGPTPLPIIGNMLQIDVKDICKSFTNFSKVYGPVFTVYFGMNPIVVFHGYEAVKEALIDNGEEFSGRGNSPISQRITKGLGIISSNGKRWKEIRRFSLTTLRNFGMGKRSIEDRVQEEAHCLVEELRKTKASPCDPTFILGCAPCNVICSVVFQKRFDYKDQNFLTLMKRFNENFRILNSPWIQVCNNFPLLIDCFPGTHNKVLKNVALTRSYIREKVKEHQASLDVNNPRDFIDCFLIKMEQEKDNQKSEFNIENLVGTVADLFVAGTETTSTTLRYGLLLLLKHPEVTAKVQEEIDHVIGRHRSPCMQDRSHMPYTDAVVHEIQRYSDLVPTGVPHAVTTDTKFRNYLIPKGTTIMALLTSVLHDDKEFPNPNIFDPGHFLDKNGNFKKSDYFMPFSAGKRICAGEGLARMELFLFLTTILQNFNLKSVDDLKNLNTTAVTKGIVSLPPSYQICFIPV

[4] = Hepatocyte stability, cynomolgus monkey; format: in vitro ADME; conditions: 0.5 million cells/ml; for CLint scaled at 2 μM: cynomolgus monkey, hepatocytes
Experimental: (§1) In this study, human, cynomolgus monkey, beagle dog, wistar hannover rat, and balb/c mouse hepatocyle stability was determined.

[5] = Hepatocyte stability, wistar hannover rat; format: in vitro ADME; conditions: 0.5 million cells/ml; for CLint scaled at 2 μM: Wistar Hannover, rat, hepatocytes
Experimental: as §1

[6] = read-out: CLint (L/hr/kg) (converted)

Row | Structure (SMILES) | A549-CRAF BP 100 nM, 2 h [1] | CYP-1A2 (Phenacetin) mean percentage CYP inhibition (CYP1A2) | CYP-2C8 (Amodiaquine) mean percentage CYP inhibition (CYP2C8) | other results
1 | CNS(=O)(=O)Nc1cccc(Cc2c(CN(C)C)c3ccc(OC(=O)N(C)C)cc3oc2=O)c1F [Compound 9] | 44.9 (mean, n = 8) | 2.8% | 15.5% | CRAF A549 pMEK:tMEK [100 nM; 2 hr] ([1]; 2 hr): 0.47; PAMPA (pH = 7.4; Papp 10^−6 cm/s) (PAMPA (pH 7.4); pH = 7.4): 37 10^−6 cm/s; Mouse Clint [2]: 32 µL/min/mg; Mouse Microsome (t1/2 min) [2]: 44 min; Human Clint [3]: 40 µL/min/mg; Human Microsome (t1/2 min) [3]: 35 min
2 | CNS(=O)(=O)Nc1cccc(Cc2c(CN(C)C)c3cc(F)c(OC(=O)N(C)C)cc3oc2=O)c1F [Compound 25] | 71 | 7.9% | 77.2% | 
3 | CCS(=O)(=O)Nc1cccc(Cc2c(CN(C)C)c3ccc(OC(=O)N(C)C)cc3oc2=O)c1F [Compound 120] |  | −3.7% | 21.9% | 
4 | CNS(=O)(=O)Nc1nccc(Cc2c(CN(C)C)c3ccc(OC(=O)N(C)C)cc3oc2=O)c1F [Compound 124] |  | 9.9% | 59.0% | 
5 | CNS(=O)(=O)Nc1cccc(Cc2c(CN3CCNCC3)c3cc(F)c(OC(=O)N(C)C)cc3oc2=O)c1F [Compound 134] | 26.9 | −0.9% | 78.8% | 
6 | CCCS(=O)(=O)Nc1cccc(Cc2c(CN3CCNCC3)c3cc(Cl)c(OC(=O)N(C)C)cc3oc2=O)c1F [Compound 167] |  | 10.8% | 61.8% | 
7 | CCN(C)Cc1c(Cc2cccc(NS(=O)(=O)NC)c2F)c(=O)oc2cc(OC(=O)N(C)C)c(F)cc12 [Compound 238] |  |  |  | Papp at 4 h, 50 μM (PAMPA (pH 7.4); PAMPA, pH = 7.4 (Table 14)): 62 ×10⁻⁶ cm/s; half-life at 2 μM ([4]; cynomolgus monkey hepatocytes): 57.2 min; CLint scaled at 2 μM [4, 6]: 5.89 L/h/kg; CLint scaled at 2 μM ([4]; read-out: CLint (mL/min/kg)): 5.89 L/h/kg; CLint scaled at 2 μM [5, 6]: 3.97 L/h/kg; CLint scaled at 2 μM ([5]; read-out: CLint (mL/min/kg)): 3.97 L/h/kg; half-life at 2 μM ([5]; wistar hannover rat hepatocytes): 56.6 min
